According to patent US12458020B2, “Synergistic herbicidal mixtures and compositions comprising triclopyr and phosphate ester adjuvants” (SBM Développement SAS, priority 2019, dated 2025):

Legend:
[1] = system: brush (e.g., poison ivy, poison oak, black berries, etc.); experiment: Field trial of residual control of brush, rated as bare ground (Example 3); type: in vivo; details: triclopyr alone at 0.275, 0.55 and 0.8% ai/v
Procedure: The objective of the trial was to determine the effects of concentration and adjuvant on triclopyr and its residual control of brush. The trial was conducted in a recreational setting at a golf course. Plots were 1×1 meters and the treatments comprised BioAdvanced Brush Killer Plus® (8.8% triclopyr) mixed to 0.275% ai/v with various adjuvants treated at 0.1% ai/v (i.e., % weight of the active ingredient per volume) (Table 3), Controls included an untreated check group and triclopyr alone at three concentrations (0.275, 0.55, and 0.8% ai/v). All treatments and controls were repeated in triplicate (i.e., three plots per group). The plots were treated at the standard rate of 2 gal of mixed product per 1000 square feet. The plots were rated for the percent of brush (e.g., poison ivy, poison oak, black berries, etc.) in each plot. […] The observations were based upon the amount of clear area (without vegetation) in each plot.

[2] = system: English ivy (Hedera helix); experiment: Field trial of triclopyr plus phosphate ester adjuvants on English ivy plots (Example 2); type: in vivo; details: triclopyr by itself, 0.55% w/v; single application
Procedure: The objective of the trial was to measure the effects of adjuvants in the same class of chemistry in the control of the evasive weed species English ivy (Hedera helix). The trial was conducted in a recreational setting at a golf course. Plots were 2×2 meters and the treatments consisted of triclopyr in the form of BioAdvanced Brush Killer Plus® 8.8% triclopyr mixed to a 0.55% w/v concentration for all the treatments, and various adjuvants treated at 0.5% ai/v (i.e., % w/v of the active ingredient) (Table 2). Controls included an untreated check group. All treatments and controls were repeated in triplicate (i.e., three plots per group). The plots were treated at the standard rate of 2 gal of mixed product per 1000 square feet. The plots were rated for the percent English Ivy in each plot. […] Trial was observed over time for the presence of English ivy in each plot.

For `O=C(O)COc1nc(Cl)c(Cl)cc1Cl` [triclopyr, 3,5,6-Trichloro-2-pyridinyloxyacetic acid], the “residual efficacy on brush as a function of triclopyr concentration” value [1] was “the higher the concentration of the triclopyr the longer the residual efficacy” and the “control of the English ivy” value [2] was “about 53%”.
